Organism: Rattus norvegicus
Experiment: Open TG-GATES - Regimen: Single
Type: toxicity, organism-based, Sprague-Dawley
Set-up: regimen Single, gender Male, age 6 weeks
Conditions: in vivo, po, 100 mg/kg, route gavage, dose level Middle; for APTT / Bas / Eos / Fbg / Hb / Ht / Lym / MCH / MCHC / MCV / Mono / Neu / PT / Plat / RBC / Ret / WBC: tissue Blood; for KIDNEY_L / KIDNEY_R / KIDNEY_TOTAL: tissue Kidney; for LIVER: tissue Liver; for A/G / ALP / ALT / AST / BUN / CRE / Ca / Cl / DBIL / GLC / IP / K / LDH / Na / PL / RALB / TBIL / TC / TG / TP / gamma-GTP: tissue Plasma

Cc1cccc(Nc2ccccc2C(=O)O)c1C [MEFENAMIC ACID]
TERMINAL_BW (3 h): 218.5 g
APTT (3 h): 19.2 s
Bas (3 h): 0%
Eos (3 h): 0.8%
Fbg (3 h): 218.2 mg/dL
Hb (3 h): 13.3 g/dL
Ht (3 h): 37.3%
Lym (3 h): 80%
MCH (3 h): 21.8 pg
MCHC (3 h): 35.5%
MCV (3 h): 61.4 fL
Mono (3 h): 2.2%
Neu (3 h): 15%
PT (3 h): 12.2 s
Plat (3 h): 114.3 x10_4/uL
RBC (3 h): 608.6 x10_4/ul
Ret (3 h): 7.4%
WBC (3 h): 104.3 x10_2/uL
KIDNEY_L (3 h): 1 g
KIDNEY_R (3 h): 1 g
KIDNEY_TOTAL (3 h): 1.9 g
LIVER (3 h): 9.9 g
A/G (3 h): 1.6
ALP (3 h): 1058 IU/L
ALT (3 h): 37.6 IU/L
AST (3 h): 67.8 IU/L
BUN (3 h): 12.4 mg/dL
CRE (3 h): 0.4 mg/dL
Ca (3 h): 10.7 mg/dL
Cl (3 h): 103.4 meq/L
DBIL (3 h): 0.074 mg/dL
GLC (3 h): 196.8 mg/dL
IP (3 h): 8.6 mg/dL
K (3 h): 4.1 meq/L
LDH (3 h): 184 IU/L
Na (3 h): 140.8 meq/L
PL (3 h): 141.4 mg/dL
RALB (3 h): 3.4 g/dL
TBIL (3 h): 0.1 mg/dL
TC (3 h): 78.6 mg/dL
TG (3 h): 43.4 mg/dL
TP (3 h): 5.5 g/dL
gamma-GTP (3 h): 1.6 IU/L
TERMINAL_BW (6 h): 215.4 g
APTT (6 h): 18.2 s
Bas (6 h): 0%
Eos (6 h): 1%
Fbg (6 h): 225.6 mg/dL
Hb (6 h): 13 g/dL
Ht (6 h): 37.2%
Lym (6 h): 76.2%
MCH (6 h): 21.7 pg
MCHC (6 h): 35.1%
MCV (6 h): 61.8 fL
Mono (6 h): 2.6%
Neu (6 h): 18.6%
PT (6 h): 12.6 s
Plat (6 h): 108.7 x10_4/uL
RBC (6 h): 602.4 x10_4/ul
Ret (6 h): 7.6%
WBC (6 h): 76.8 x10_2/uL
KIDNEY_L (6 h): 1 g
KIDNEY_R (6 h): 1 g
KIDNEY_TOTAL (6 h): 2 g
LIVER (6 h): 9.6 g
A/G (6 h): 1.6
ALP (6 h): 782.4 IU/L
ALT (6 h): 36.8 IU/L
AST (6 h): 64.2 IU/L
BUN (6 h): 11 mg/dL
CRE (6 h): 0.3 mg/dL
Ca (6 h): 10.5 mg/dL
Cl (6 h): 103 meq/L
DBIL (6 h): 0.064 mg/dL
GLC (6 h): 185.4 mg/dL
IP (6 h): 9 mg/dL
K (6 h): 4.1 meq/L
LDH (6 h): 160.4 IU/L
Na (6 h): 139.8 meq/L
PL (6 h): 139.6 mg/dL
RALB (6 h): 3.3 g/dL
TBIL (6 h): 0.1 mg/dL
TC (6 h): 77.6 mg/dL
TG (6 h): 48.4 mg/dL
TP (6 h): 5.4 g/dL
gamma-GTP (6 h): 1.4 IU/L
TERMINAL_BW (9 h): 211.6 g
APTT (9 h): 17.9 s
Bas (9 h): 0%
Eos (9 h): 1%
Fbg (9 h): 216.4 mg/dL
Hb (9 h): 13.6 g/dL
Ht (9 h): 38.1%
Lym (9 h): 77.2%
MCH (9 h): 22.3 pg
MCHC (9 h): 35.8%
MCV (9 h): 62.4 fL
Mono (9 h): 2.2%
Neu (9 h): 18.2%
PT (9 h): 12.7 s
Plat (9 h): 112.5 x10_4/uL
RBC (9 h): 611 x10_4/ul
Ret (9 h): 7.2%
WBC (9 h): 77.1 x10_2/uL
KIDNEY_L (9 h): 0.9 g
KIDNEY_R (9 h): 0.9 g
KIDNEY_TOTAL (9 h): 1.8 g
LIVER (9 h): 8.6 g
A/G (9 h): 1.6
ALP (9 h): 955.2 IU/L
ALT (9 h): 30.8 IU/L
AST (9 h): 61.6 IU/L
BUN (9 h): 12.2 mg/dL
CRE (9 h): 0.4 mg/dL
Ca (9 h): 10.4 mg/dL
Cl (9 h): 103 meq/L
DBIL (9 h): 0.06 mg/dL
GLC (9 h): 196.2 mg/dL
IP (9 h): 9.4 mg/dL
K (9 h): 3.7 meq/L
LDH (9 h): 184.6 IU/L
Na (9 h): 140.2 meq/L
PL (9 h): 127.8 mg/dL
RALB (9 h): 3.4 g/dL
TBIL (9 h): 0.1 mg/dL
TC (9 h): 72.4 mg/dL
TG (9 h): 29.6 mg/dL
TP (9 h): 5.5 g/dL
gamma-GTP (9 h): 1 IU/L
TERMINAL_BW (24 h): 227 g
APTT (24 h): 17.3 s
Bas (24 h): 0%
Eos (24 h): 1%
Fbg (24 h): 209.2 mg/dL
Hb (24 h): 13 g/dL
Ht (24 h): 37.3%
Lym (24 h): 72.6%
MCH (24 h): 22.1 pg
MCHC (24 h): 35%
MCV (24 h): 63.2 fL
Mono (24 h): 2.8%
Neu (24 h): 21.2%
PT (24 h): 12.1 s
Plat (24 h): 119.7 x10_4/uL
RBC (24 h): 590.4 x10_4/ul
Ret (24 h): 7%
WBC (24 h): 99.5 x10_2/uL
KIDNEY_L (24 h): 1 g
KIDNEY_R (24 h): 1.1 g
KIDNEY_TOTAL (24 h): 2.1 g
LIVER (24 h): 11 g
A/G (24 h): 1.6
ALP (24 h): 883 IU/L
ALT (24 h): 39.2 IU/L
AST (24 h): 67.2 IU/L
BUN (24 h): 14.2 mg/dL
CRE (24 h): 0.4 mg/dL
Ca (24 h): 10.9 mg/dL
Cl (24 h): 102.8 meq/L
DBIL (24 h): 0.092 mg/dL
GLC (24 h): 190.6 mg/dL
IP (24 h): 7.5 mg/dL
K (24 h): 4.3 meq/L
LDH (24 h): 196.4 IU/L
Na (24 h): 139.8 meq/L
PL (24 h): 151.8 mg/dL
RALB (24 h): 3.5 g/dL
TBIL (24 h): 0.1 mg/dL
TC (24 h): 81 mg/dL
TG (24 h): 88.8 mg/dL
TP (24 h): 5.6 g/dL
gamma-GTP (24 h): 1.4 IU/L

Reference: ChEMBL document CHEMBL3885861, “Open TG-GATES”
